This is an account of results in patent publication US9744142B2, “Formulations of volatile anesthetics and methods of use for reducing inflammation” (Board of Regents, The University of Texas Systems, priority 2009, dated 2017).

The series can be described thus: Isoflurane remaining in uncapped vials over time, determined by weighing (volatility). To be noted: uncapped vial. Format: physicochemical. As to the method: In the Examples that follow, the stability of isoflurane in the described compositions was determined in two ways. First, the compositions were examined for the presence of phase separation at the macroscopic level. Secondly, isoflurane content of the compositions was determined by weighing the remaining isoflurane in the composition when they were left uncapped over time. Briefly, glass vials were filled with 5-10 ml of the composition vehicle and then weighed; one of them received only vehicle (i.e., no isoflurane) and served as control. The other vials received varying amounts of isoflurane. They were left uncapped in the hood. Over time, the vials were weighed to see if the isoflurane stayed in the composition or had evaporated. The amount evaporated over time in the vehicle control was subtracted from that in the isoflurane-containing composition.
The pure form of isoflurane is a volatile anesthetic. In order to assess the volatility of isoflurane, two vials received the indicated amounts of pure form isoflurane. The vials were placed in the chemical fume hood and left uncapped. The vials were weighed at the indicated times to determine the amount of evaporated isoflurane. As it is shown in the table below 0.7893 g isoflurane was evaporated within 3 hours, while 3.4825 g isoflurane took approximately 8 hrs to evaporate completely. These amounts of isoflurane are similar to the amounts of isoflurane that were used to prepare the isoflurane compositions in the Examples that follow.

SMILES strings stand for the structures.

Consider `FC(F)OC(Cl)C(F)(F)F` (stereo not shown) [isoflurane], for which the “time until isoflurane was evaporated” value (pure isoflurane 0.7893 g) was no more than 3 h. Further, under “pure isoflurane 3.4825 g”, the “time to evaporate completely” value is “approximately 8 hrs”. Also, the 7 h (pure isoflurane 3.4825 g, 7 h, remaining iso as in the neighbouring columns) came out at 13. The molecule further yielded an 8 h (pure isoflurane 3.4825 g, 8 h, remaining iso as in the neighbouring columns) of 3.
